Test results taken from PubChem BioAssay AID1996.
Converted amounts (≈) assume the structure as drawn.

Conditions: buffer; pH 7.4; 200.0 µM

| SMILES | solubility kinetic [µg/mL] |
| --- | --- |
| O=C1CN(c2ccccc2)C(=S)N1c1ccccc1.[Na+] | 7.4 |
| S=C(Nc1ccccc1)Nc1ccccc1Br | 16.4 (≈ 53.4 µM) |
| O=C(C[n+]1ccccc1)N1CCCc2ccccc21.[Cl-] | > 43.3 |
| CC1CC(C)CN(C(=O)COC(=O)c2c[nH]c3ccccc23)C1 (stereo not given) | 12.7 (≈ 40.4 µM) |
| CCOc1ccccc1NC(=O)CN1C(=O)CSC(C)C1=O (stereo not given) | > 48.4 |
| CC1(C)C2CCC1(C)C(OCCNCCOC(=O)Nc1ccccc1)C2 (stereo not given) | 10.2 (≈ 28.3 µM) |
| COc1ccc(CN2CCN(C3CCC3)CC2CCO)cc1C (stereo not given) | 42.3 (≈ 133 µM) |
| CC(=O)Nc1ccc(N2C(=O)C3C4C=CC(CC4)C3C2=O)cc1 (stereo not given) | > 46.6 |
| COc1cccc(OC)c1C(=O)NC(=O)Oc1c(F)cccc1F | 43.8 (≈ 130 µM) |
| O=C(NCCNC(=O)c1ccccc1)c1ccccc1 | > 40.2 |
| CCCCCC(=O)Nc1c2c(nc3ccccc13)CCC2 | 18.7 (≈ 66.2 µM) |
| Cc1ccc(C(=O)N/C(=C\c2ccco2)C(=O)N2CC(C)OC(C)C2)cc1C (stereo not given) | > 57.4 |
| Cc1ccc(NC(=S)NC(C)(C)C)c([N+](=O)[O-])c1 | 8.2 (≈ 30.7 µM) |
| COc1cc(OC)cc(C(=O)N[C@H](C(=O)OCC(=O)Nc2ccc3c(c2)OCO3)C(C)C)c1 | 21.2 (≈ 46.2 µM) |
| O=C(O)c1cccc2c1C(=O)N(CC1CCCO1)C2 (stereo not given) | > 39.2 |
| CC(=O)Nc1ccc2c(c1)ncn2-c1ccc(C)cc1 | 38.8 (≈ 146 µM) |
| CCN1CCN(C(=O)NC2CC(=O)N(c3ccc(OC)cc3)C2)CC1 (stereo not given) | > 52 |
| C=CCNc1nc(Cl)nc(NC2CCCCC2)n1 | 6.9 (≈ 25.8 µM) |
| CC1CCCCC12NC(=O)N(CC(=O)N1CCN(c3ccccc3)CC1)C2=O (stereo not given) | > 57.7 |
| COc1ccc(C2SCC(=O)N2c2ccc(OC)cc2)cc1 (stereo not given) | 45.7 (≈ 145 µM) |

| SMILES | solubility kinetic [µg/mL] |
| --- | --- |
| O=C(Nc1ccc(SC(F)F)cc1)c1ccc(F)cc1 | 1.3 (≈ 4.37 µM) |
| COc1cc(=O)[nH]c(SC(C)C(=O)Nc2cc(C)on2)n1 (stereo not given) | > 46.5 |
| CC(=O)c1ccc(NC(=O)[C@@]2(CC(=O)O)CC(/C=C/c3ccccc3)=NO2)cc1 | > 58.9 |
| CC(=O)NC(NC(=S)Nc1ccc(S(N)(=O)=O)cc1)C(Cl)(Cl)Cl (stereo not given) | 62.6 (≈ 149 µM) |
| COC(=O)c1sc(S(=O)(=O)N2CCN(c3ccccc3F)CC2)c(C(=O)OC)c1C | 2.1 (≈ 4.6 µM) |
| COc1cc(NC(=O)CSCc2ccccc2)c(C(=O)O)cc1OC | 52.6 (≈ 146 µM) |
| COCCCNC(=S)Nc1cc(C)c(C)cc1C | > 40 |
| COc1ccccc1C(=O)NC(=O)CSc1ccc(C)c(C)c1 | 14 (≈ 42.5 µM) |
| O=C(COC(=O)c1c[nH]c(=O)[nH]c1=O)Nc1ccccc1F | > 46.1 |
| O=S(=O)(NCc1cn2ccccc2n1)c1ccccc1F | > 45.8 |
| O=c1[nH]c(=S)n(-c2ccccc2)c(O)c1C=NCCN1CCNCC1 | > 53.9 |
| CC1CC(C)CN(C(=O)COC(=O)c2ccc([N+](=O)[O-])o2)C1 (stereo not given) | > 46.5 |
| O=C(Nc1ccccc1F)c1ccccc1C(=O)Nc1ccccc1F | 32.5 (≈ 92.2 µM) |
| CC1CCN(c2nc(N(C)c3ccccc3)nc(N)c2[N+](=O)[O-])CC1 | 4.6 (≈ 13.4 µM) |
| CC(=O)c1sc(-c2ccccc2)cc1N | 28.4 (≈ 131 µM) |
| Cc1cc(/C(N)=N/OC(=O)Nc2cccc(C(F)(F)F)c2)no1 | 7.2 (≈ 21.9 µM) |
| NC1=NC(=O)/C(=C/C=C/c2cccs2)S1 | 5.9 (≈ 25 µM) |
| CN(Cc1ccccc1)C(=O)COC(=O)C12CC3CC(CC(Br)(C3)C1)C2 | 18.8 (≈ 44.7 µM) |
| Cc1ccc2c(c1)N(CC(=O)N1CCCC1)C(=O)C(C)O2 (stereo not given) | > 43.3 |
| Nc1nonc1OCCOCCOCCOc1nonc1N | 45.7 (≈ 144 µM) |

| SMILES | solubility kinetic [µg/mL] |
| --- | --- |
| c1ccc(CCCN2CCN(c3ccccn3)CC2)cc1 | 26.8 (≈ 95.2 µM) |
| CNC(=S)Nc1cccc([N+](=O)[O-])c1 | > 31.7 |
| O=C(COc1ncnc2ccccc12)N1CCN(c2ccccc2)CC1 | > 52.3 |
| CCc1c(C)nc(N)nc1Cl | 24.1 (≈ 140 µM) |
| Cc1ccc(C(=O)C(C)Sc2nnc(N)s2)cc1 (stereo not given) | > 41.9 |
| COC(=O)c1sc(C(C)(C)C)cc1CS(=O)(=O)c1ccccn1 | 45.2 (≈ 128 µM) |
| COc1ccccc1C1(O)C(=O)Nc2ccc(C)cc21 (stereo not given) | > 40.4 |
| O=C(Nc1cccnc1Cl)c1noc2c1CCc1ccccc1-2 | < 0.2 |
| COc1ccccc1-c1cc(C(=O)N2CCCc3ccccc32)no1 | 3.1 (≈ 9.27 µM) |
| O=C(Nc1ccc(F)c([N+](=O)[O-])c1)C(=O)c1c(O)[nH]c2ccccc12 | > 51.5 |
| CCN(CC)C(=O)Oc1ccc(NC(=O)N2CCOCC2)cc1 | > 48.2 |
| Cc1ccccc1OCC(=O)NC1CCCCCCC1 | 4.2 (≈ 15.3 µM) |
| O=[N+]([O-])c1ccc(CN2CCN(c3ccc(Cl)cc3)CC2)o1 | 4.7 (≈ 14.6 µM) |
| O=C(NCc1ccc(Cl)cc1Cl)Nc1ccccc1 | 0.4 (≈ 1.36 µM) |
| CN(C)C(=O)c1ccc(NC(=O)c2ccccc2-c2ccccc2)cc1 | > 51.7 |
| O=C(COc1ccc(Cl)cc1Cl)c1ccc[nH]1 | 34.9 (≈ 129 µM) |
| CCSc1nc(O)cc(=O)n1CC | > 30 |
| Cc1ccc(C)c(NC(=O)/C(C#N)=C/c2ccc[nH]2)c1 | 3.7 (≈ 13.9 µM) |
| COc1ccc(/C=C2\C(=O)ON=C2c2ccccc2)cc1OC | 45.7 (≈ 148 µM) |
| Cc1ccc2c(c1)C1CN(C)CCC1N2S(=O)(=O)c1ccccc1F (stereo not given) | > 54.1 |
